In patent US9512105B2, “1-substituted 4-arylpiperazine as kappa opioid receptor antagonists” (RESEARCH TRIANGLE INSTITUTE, priority 2011, dated 2016):
Structures can show the parent of a compound that is named as a salt. Where two headings read alike, the source gives them in different places.

Experiments:
[1] = target: T1, cloned human μ-opioid receptor (Homo sapiens, UniProt P35372); test: Inhibition of DAMGO-stimulated [35S]GTPγS binding; assay type: biochemical
T1 construct: expressed in transfected cells

[2] = target: T2, cloned human δ-opioid receptor (Homo sapiens, UniProt P41143); test: Inhibition of DPDPE-stimulated [35S]GTPγS binding; assay type: biochemical
T2 construct: expressed in transfected cells

[3] = target: T3, cloned human κ-opioid receptor (Homo sapiens, UniProt P41145); test: Inhibition of U69,593-stimulated [35S]GTPγS binding; assay type: biochemical; conditions: for κ, U69,593 Ke / Kb: antagonism of U69,593-stimulated [35S]GTPγS binding, cloned human κ receptor; for δ/κ / μ/κ: ratio of Ke values; for δ/κ: selectivity for κ relative to δ; for μ/κ: selectivity for κ relative to μ; for Kb: read-out: κ, U69,593 Ke; for efficacy for the κ opioid receptor in words: [35S]GTPγS in vitro functional assay
T3 construct: expressed in transfected cells

[4] = antagonism of DAMGO-stimulated [35S]GTPγS binding, cloned human μ receptor
[5] = antagonism of DPDPE-stimulated [35S]GTPγS binding, cloned human δ receptor
[6] = antagonism of DAMGO-stimulated [35S]GTPγS binding, cloned human μ receptor, read-out: μ, DAMGO Ke
[7] = antagonism of DPDPE-stimulated [35S]GTPγS binding, cloned human δ receptor, read-out: δ, DPDPE Ke

T3 sequence (P41145 whole entry): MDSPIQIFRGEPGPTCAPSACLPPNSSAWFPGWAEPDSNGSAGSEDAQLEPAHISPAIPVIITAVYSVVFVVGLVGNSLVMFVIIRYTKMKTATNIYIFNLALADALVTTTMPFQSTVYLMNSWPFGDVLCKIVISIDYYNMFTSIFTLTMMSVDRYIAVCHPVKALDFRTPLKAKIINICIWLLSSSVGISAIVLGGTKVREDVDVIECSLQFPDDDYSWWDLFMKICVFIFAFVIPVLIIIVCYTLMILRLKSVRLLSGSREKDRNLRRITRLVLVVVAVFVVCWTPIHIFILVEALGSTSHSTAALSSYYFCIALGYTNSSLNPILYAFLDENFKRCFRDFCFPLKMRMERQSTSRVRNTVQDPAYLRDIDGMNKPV
T2 sequence (P41143 whole entry): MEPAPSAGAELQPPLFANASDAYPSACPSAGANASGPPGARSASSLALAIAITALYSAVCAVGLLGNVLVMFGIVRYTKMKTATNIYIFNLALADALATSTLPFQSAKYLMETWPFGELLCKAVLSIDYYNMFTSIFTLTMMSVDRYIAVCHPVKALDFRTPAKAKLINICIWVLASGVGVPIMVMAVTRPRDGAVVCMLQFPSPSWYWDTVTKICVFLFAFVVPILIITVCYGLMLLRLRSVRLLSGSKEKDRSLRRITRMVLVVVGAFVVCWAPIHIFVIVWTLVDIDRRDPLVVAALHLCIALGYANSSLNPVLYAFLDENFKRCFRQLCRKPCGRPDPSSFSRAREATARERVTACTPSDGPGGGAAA
T1 sequence (P35372 whole entry): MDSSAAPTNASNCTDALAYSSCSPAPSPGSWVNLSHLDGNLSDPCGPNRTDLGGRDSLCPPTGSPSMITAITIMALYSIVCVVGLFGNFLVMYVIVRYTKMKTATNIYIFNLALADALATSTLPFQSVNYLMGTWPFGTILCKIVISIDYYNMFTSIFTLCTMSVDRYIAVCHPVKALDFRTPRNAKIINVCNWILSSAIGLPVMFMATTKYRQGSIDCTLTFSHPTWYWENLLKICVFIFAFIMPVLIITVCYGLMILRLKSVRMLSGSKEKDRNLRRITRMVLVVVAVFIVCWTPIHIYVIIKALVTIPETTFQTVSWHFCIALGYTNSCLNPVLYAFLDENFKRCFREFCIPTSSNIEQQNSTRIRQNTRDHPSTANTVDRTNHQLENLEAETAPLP

Row | SMILES | μ, DAMGO Ke [1, 4] | δ, DPDPE Ke [2, 5] | κ, U69,593 Ke [3] | δ/κ [3] | μ/κ [3] | Kb [1, 6] | Kb [2, 7] | Kb [3] | melting point | efficacy for the κ opioid receptor in words [3] | Kb [1] | Kb [2] | δ/κ ([3]; Dihydrochloride)
1 | CC(C)[C@@H](CN1CCN(c2cccc(O)c2)[C@@H](C)C1)NC(=O)c1ccc(Oc2cccc(F)c2)cc1.Cl.Cl [Compound 6c, N-(1S)-1-{[(3S)-4-(3-Hydroxyphenyl)-3-methylpiperazin-1-yl]methyl}-2-methylpropyl-4-(3-fluorophenoxy)benzamide Dihydrochloride] | 30 ± 9.0 nM | 174 ± 4.5 nM | 1.48 ± 0.51 nM | 118 | 16 |  |  |  |  |  |  |  | 
2 | CC(C)[C@@H](CN1CCN(c2cccc(O)c2)[C@@H](C)C1)NC(=O)c1ccc(Oc2ccc(O)cc2)cc1.Cl.Cl [Compound 6g, N-(1S)-1-{[(3S)-4-(3-Hydroxyphenyl)-3-methylpiperazin-1-yl]methyl}-2-methylpropyl-4-(4-hydroxyphenoxy)benzamide Dihydrochloride] | 71 ± 19 nM | 1696 ± 377 nM | 8.6 ± 3.7 nM | 1.97 | 8 |  |  |  |  |  |  |  | 
3 | Cc1ccc(O)c(Oc2ccc(C(=O)N[C@H](CN3CCN(c4cccc(O)c4)[C@@H](C)C3)C(C)C)cc2Cl)c1.Cl.Cl [Compound 19p, 3-Chloro-4-(2-hydroxy-5-methylphenoxy)-N-[(1S)-1-{[(3S)-4-(3-hydroxyphenyl)-3-methylpiperazin-1-yl]methyl}-2-methylpropyl]benzamide Dihydrochloride] |  |  |  | 5 | 3 | 8.2 ± 1.7 nM | 15 ± 3.6 nM | 3 ± 1.1 nM | 145 to 148 °C |  |  |  | 
4 | CC(C)[C@@H](CN1CCN(c2cccc(O)c2)[C@@H](C)C1)NC(=O)c1ccc(Oc2ccccc2)cc1.Cl.Cl [Compound 6a, N-(1S)-1-{[(3S)-4-(3-Hydroxyphenyl)-3-methylpiperazin-1-yl]methyl}-2-methylpropyl-4-phenoxybenzamide Dihydrochloride] | 51 ± 14.9 nM | 570 ± 79 nM | 0.85 ± 0.35 nM |  |  |  |  |  |  | high efficacy (low Ke values) |  |  | 
5 | Cc1cccc(Oc2ccc(C(=O)N[C@H](CN3CCN(c4cccc(O)c4)[C@@H](C)C3)C(C)C)cc2)c1O.Cl.Cl [Compound 19e, 4-(2-Hydroxy-3-methylphenoxy)-N-[(2S)-1-[(3S)-4-(3-hydroxyphenyl)-3-methylpiperazin-1-yl]-3-methylbutan-2-yl]benzamide Dihydrochloride] |  |  |  |  |  | 23.8 ± 8.9 nM | 92.7 ± 14 nM | 0.34 ± 0.16 nM | 173 °C |  |  |  | 
6 | CC(C)[C@@H](CN1CCN(c2cccc(O)c2)[C@@H](C)C1)NC(=O)c1ccc(Oc2ccccc2)cn1 [Compound 7a, N-(1S)-1-{[(3S)-4-(3-Hydroxyphenyl)-3-methylpiperazin-1-yl]methyl}-2-methylpropyl]-5-phenoxypyridine-2-carboxamide Trihydrochloride] |  |  |  | 723 | 36 | 101 ± 16 nM | 2020 ± 678 nM | 2.8 ± 1.2 nM |  |  |  |  | 
7 | Cc1cccc(Oc2ccc(C(=O)N[C@H](CN3CCN(c4cccc(O)c4)[C@@H](C)C3)C(C)C)c(C)c2)c1.Cl.Cl [Compound 19j, N-[(1S)-1-{[(3S)-4-(3-Hydroxyphenyl)-3-methylpiperazin-1-yl]methyl}-2-methylpropyl]-2-methyl-4-(3-methylphenoxy)benzamide Dihydrochloride] |  |  |  | 28 | 22 |  |  | 0.65 ± 0.2 nM | 164 to 167 °C |  | 14 ± 3 nM | 18 ± 3 nM | 
8 | Cc1cccc(Oc2ccc(C(=O)N[C@H](CN3CCN(c4cccc(O)c4)[C@@H](C)C3)C(C)C)cc2C)c1.Cl.Cl [Compound 19g, N-[(2S)-1-[(3S)-4-(3-Hydroxyphenyl)-3-methylpiperazin-1-yl]-3-methylbutan-2-yl]-3-methyl-4-(3-methylphenoxy)benzamide Dihydrochloride] |  |  |  |  |  | 14.4 ± 3.9 nM | 21 ± 6 nM | 0.16 ± 0.03 nM | 124 to 130 °C |  |  |  | 131
9 | Cc1ccc(O)c(Oc2ccc(C(=O)N[C@H](CN3CCN(c4cccc(O)c4)[C@@H](C)C3)C(C)C)cc2)c1.Cl.Cl [Compound 6m, 4-(2-Hydroxy-5-methylphenoxy)-N-[(2S)-1-[(3S)-4-(3-hydroxyphenyl)-3-methylpiperazin-1-yl]-3-methylbutan-2-yl]benzamide Dihydrochloride] |  |  |  |  |  |  |  |  | 179 to 183 °C |  |  |  | 
10 | COc1cc(C(=O)N[C@H](CN2CCN(c3cccc(O)c3)[C@@H](C)C2)C(C)C)ccc1Oc1ccccc1O.Cl.Cl [Compound 19m, 4-(2-Hydroxyphenoxy)-N-[(1S)-1-{[(3S)-4-(3-hydroxyphenyl)-3-methylpiperazin-1-yl]methyl}-2-methylpropyl]-3-methoxybenzamide Dihydrochloride] |  |  |  | 4 | 5 | 74 ± 23 nM |  | 16.3 ± 2.7 nM | 95 to 97 °C |  |  | 67 ± 47 nM | 
11 | COc1cccc(Oc2ccc(C(=O)N[C@H](CN3CCN(c4cccc(O)c4)[C@@H](C)C3)C(C)C)cc2)c1.Cl.Cl [Compound 6f, N-(1S)-1-{[(3S)-4-(3-Hydroxyphenyl)-3-methylpiperazin-1-yl]methyl}-2-methylpropyl-4-(3-methoxyphenoxy)benzamide Dihydrochloride] | 33 ± 14 nM | 1502 ± 412 nM | 0.63 ± 0.13 nM | 2384 | 52 |  |  |  |  | high efficacy (low Ke values) |  |  | 
12 | CC(C)[C@@H](CN1CCN(c2cccc(O)c2)[C@@H](C)C1)NC(=O)c1ccc(Oc2cccc(O)c2)cc1.Cl.Cl [Compound 6i, N-(1S)-1-{[(3S)-4-(3-Hydroxyphenyl)-3-methylpiperazin-1-yl]methyl}-2-methylpropyl-4-(3-hydroxyphenoxy)benzamide Dihydrochloride] | 69 ± 14 nM | 625 ± 121 nM | 1.85 ± 0.51 nM | 338 | 37 |  |  |  |  |  |  |  | 
13 | COc1ccccc1Oc1ccc(C(=O)N[C@H](CN2CCN(c3cccc(O)c3)[C@@H](C)C2)C(C)C)cc1.Cl.Cl [Compound 6e, N-(1S)-1-{[(3S)-4-(3-Hydroxyphenyl)-3-methylpiperazin-1-yl]methyl}-2-methylpropyl-4-(2-methoxyphenoxy)benzamide Dihydrochloride] | 127 ± 78 nM | 869 ± 205 nM | 5.60 ± 1.41 nM | 155 | 25 |  |  |  |  |  |  |  | 
14 | Cc1cccc(Oc2ccc(C(=O)N[C@H](CN3CCN(c4cccc(O)c4)[C@@H](C)C3)C(C)C)cc2)c1.Cl.Cl [Compound 6d, N-(1S)-1-{[(3S)-4-(3-Hydroxyphenyl)-3-methylpiperazin-1-yl]methyl}-2-methylpropyl-4-(3-methylphenoxy)benzamide Dihydrochloride] | 18 ± 6 nM | 62 ± 20 nM | 0.18 ± 0.06 nM |  |  |  |  |  |  | high efficacy (low Ke values) |  |  | 
15 | Cc1cc(C(=O)N[C@H](CN2CCN(c3cccc(O)c3)[C@@H](C)C2)C(C)C)ccc1Oc1ccccc1.Cl.Cl [Compound 6k, N-(1S)-1-{[(3S)-4-(3-Hydroxyphenyl)-3-methylpiperazin-1-yl]methyl}-2-methylpropyl-3-methyl-4-phenoxybenzamide Dihydrochloride] | 15 ± 2 nM | 435 ± 143 nM | 0.63 ± 0.19 nM | 691 | 24 |  |  |  |  | high efficacy (low Ke values) |  |  | 
16 | CC(C)[C@@H](CN1CCN(c2cccc(O)c2)[C@@H](C)C1)NC(=O)c1ccc(Oc2ccccc2O)cc1.Cl.Cl [Compound 6h, N-(1S)-1-{[(3S)-4-(3-Hydroxyphenyl)-3-methylpiperazin-1-yl]methyl}-2-methylpropyl-4-(2-hydroxyphenoxy)benzamide Dihydrochloride] | 125 ± 10 nM | 960 ± 224 nM | 1.06 ± 0.26 nM |  |  |  |  |  |  |  |  |  | 
17 | Cc1ccc(Oc2ccc(C(=O)N[C@H](CN3CCN(c4cccc(O)c4)[C@@H](C)C3)C(C)C)cc2)cc1.Cl.Cl [Compound 6b, N-(1S)-1-{[(3S)-4-(3-Hydroxyphenyl)-3-methylpiperazin-1-yl]methyl}-2-methylpropyl-4-(4-methylphenoxy)benzamide Dihydrochloride] | 20 ± 6 nM | 188 ± 33 nM | 0.69 ± 0.25 nM | 275 | 29 |  |  |  |  | high efficacy (low Ke values) |  |  | 
18 | COc1ccc(Oc2ccc(C(=O)N[C@H](CN3CCN(c4cccc(O)c4)[C@@H](C)C3)C(C)C)cc2)cc1.Cl.Cl [Compound 6j, N-(1S)-1-{[(3S)-4-(3-Hydroxyphenyl)-3-methylpiperazin-1-yl]methyl}-2-methylpropyl-4-(4-methoxyphenoxy)benzamide Dihydrochloride] | 17 ± 5 nM | 1383 ± 1049 nM | 0.60 ± 0.19 nM | 2305 | 28 |  |  |  |  | high efficacy (low Ke values) |  |  | 
19 | CC(C)[C@@H](CN1CCN(c2cccc(O)c2)[C@@H](C)C1)NC(=O)c1ccc(Oc2ccccc2O)c(Cl)c1.Cl.Cl [Compound 19n, 3-Chloro-4-(2-hydroxyphenoxy)-N-[(1)-1-{[(3S)-4-(3-hydroxyphenyl)-3-methylpiperazin-1-yl]methyl}-2-methylpropyl]benzamide Dihydrochloride] | 36 ± 9.2 nM | 210 ± 82 nM | 5.0 ± 0.82 nM | 42 | 7 |  |  |  |  |  |  |  | 
